# Active and inactive are the calls of the source.
# Experiments:
# [1] = target: Induced myeloid leukemia cell differentiation protein Mcl-1 (Homo sapiens, UniProt Q07820); assay type: functional
# Cytochrome P450 3A4 = Cytochrome P450 3A4 (Homo sapiens, UniProt P08684); settings: Potency;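 further: confirmatory qHTS run detecting inhibitors and substrates of CYP3A4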
# [2] = target: T1, Short transient receptor potential channel 4 (Mus musculus, UniProt Q9QUQ5); test: mouse TRPC4 channel activators, dose response, cell-based, HEK293 TRPC4/mu-opioid, Fluo-4 calcium (AID 434937); assay type: functional
# T1 sequence (Q9QUQ5 whole entry): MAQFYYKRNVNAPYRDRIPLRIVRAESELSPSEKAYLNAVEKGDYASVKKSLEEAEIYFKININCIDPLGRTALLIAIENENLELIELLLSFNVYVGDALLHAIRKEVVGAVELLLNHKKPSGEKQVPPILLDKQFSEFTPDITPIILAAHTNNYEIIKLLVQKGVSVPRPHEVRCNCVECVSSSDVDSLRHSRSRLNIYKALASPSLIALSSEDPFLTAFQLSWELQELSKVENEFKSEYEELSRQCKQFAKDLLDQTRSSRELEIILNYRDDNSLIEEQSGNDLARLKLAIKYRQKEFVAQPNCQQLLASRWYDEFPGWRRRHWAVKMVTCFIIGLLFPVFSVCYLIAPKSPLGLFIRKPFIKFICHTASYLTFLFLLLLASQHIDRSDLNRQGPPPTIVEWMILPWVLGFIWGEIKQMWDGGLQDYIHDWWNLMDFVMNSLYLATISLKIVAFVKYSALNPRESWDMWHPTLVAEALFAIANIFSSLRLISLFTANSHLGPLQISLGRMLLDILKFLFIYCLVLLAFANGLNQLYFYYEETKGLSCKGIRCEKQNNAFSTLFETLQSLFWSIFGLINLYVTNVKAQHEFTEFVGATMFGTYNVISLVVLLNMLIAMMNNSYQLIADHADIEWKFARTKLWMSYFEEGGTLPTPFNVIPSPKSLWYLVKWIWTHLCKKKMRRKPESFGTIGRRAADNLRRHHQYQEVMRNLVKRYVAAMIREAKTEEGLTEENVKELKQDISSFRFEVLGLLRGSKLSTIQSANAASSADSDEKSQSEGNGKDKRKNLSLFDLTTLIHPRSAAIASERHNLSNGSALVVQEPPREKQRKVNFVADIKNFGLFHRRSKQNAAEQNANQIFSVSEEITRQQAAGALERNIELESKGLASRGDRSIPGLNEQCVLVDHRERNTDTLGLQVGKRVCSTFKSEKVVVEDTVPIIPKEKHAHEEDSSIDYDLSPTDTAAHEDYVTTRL
# Fatty acid synthase [3] = target: T2, Fatty acid synthase (Homo sapiens, UniProt P49327); test: FAS thioesterase domain inhibitors, dose response, biochemical, endpoint fluorescence intensity, uHTS hits (AID 624327); assay type: functional;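 further: fluorescence from hydrolysis of an O-methyl fluorescein acyl ester substrate by the enzyme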
# T2 sequence (P49327 whole entry, the tested form may be a part): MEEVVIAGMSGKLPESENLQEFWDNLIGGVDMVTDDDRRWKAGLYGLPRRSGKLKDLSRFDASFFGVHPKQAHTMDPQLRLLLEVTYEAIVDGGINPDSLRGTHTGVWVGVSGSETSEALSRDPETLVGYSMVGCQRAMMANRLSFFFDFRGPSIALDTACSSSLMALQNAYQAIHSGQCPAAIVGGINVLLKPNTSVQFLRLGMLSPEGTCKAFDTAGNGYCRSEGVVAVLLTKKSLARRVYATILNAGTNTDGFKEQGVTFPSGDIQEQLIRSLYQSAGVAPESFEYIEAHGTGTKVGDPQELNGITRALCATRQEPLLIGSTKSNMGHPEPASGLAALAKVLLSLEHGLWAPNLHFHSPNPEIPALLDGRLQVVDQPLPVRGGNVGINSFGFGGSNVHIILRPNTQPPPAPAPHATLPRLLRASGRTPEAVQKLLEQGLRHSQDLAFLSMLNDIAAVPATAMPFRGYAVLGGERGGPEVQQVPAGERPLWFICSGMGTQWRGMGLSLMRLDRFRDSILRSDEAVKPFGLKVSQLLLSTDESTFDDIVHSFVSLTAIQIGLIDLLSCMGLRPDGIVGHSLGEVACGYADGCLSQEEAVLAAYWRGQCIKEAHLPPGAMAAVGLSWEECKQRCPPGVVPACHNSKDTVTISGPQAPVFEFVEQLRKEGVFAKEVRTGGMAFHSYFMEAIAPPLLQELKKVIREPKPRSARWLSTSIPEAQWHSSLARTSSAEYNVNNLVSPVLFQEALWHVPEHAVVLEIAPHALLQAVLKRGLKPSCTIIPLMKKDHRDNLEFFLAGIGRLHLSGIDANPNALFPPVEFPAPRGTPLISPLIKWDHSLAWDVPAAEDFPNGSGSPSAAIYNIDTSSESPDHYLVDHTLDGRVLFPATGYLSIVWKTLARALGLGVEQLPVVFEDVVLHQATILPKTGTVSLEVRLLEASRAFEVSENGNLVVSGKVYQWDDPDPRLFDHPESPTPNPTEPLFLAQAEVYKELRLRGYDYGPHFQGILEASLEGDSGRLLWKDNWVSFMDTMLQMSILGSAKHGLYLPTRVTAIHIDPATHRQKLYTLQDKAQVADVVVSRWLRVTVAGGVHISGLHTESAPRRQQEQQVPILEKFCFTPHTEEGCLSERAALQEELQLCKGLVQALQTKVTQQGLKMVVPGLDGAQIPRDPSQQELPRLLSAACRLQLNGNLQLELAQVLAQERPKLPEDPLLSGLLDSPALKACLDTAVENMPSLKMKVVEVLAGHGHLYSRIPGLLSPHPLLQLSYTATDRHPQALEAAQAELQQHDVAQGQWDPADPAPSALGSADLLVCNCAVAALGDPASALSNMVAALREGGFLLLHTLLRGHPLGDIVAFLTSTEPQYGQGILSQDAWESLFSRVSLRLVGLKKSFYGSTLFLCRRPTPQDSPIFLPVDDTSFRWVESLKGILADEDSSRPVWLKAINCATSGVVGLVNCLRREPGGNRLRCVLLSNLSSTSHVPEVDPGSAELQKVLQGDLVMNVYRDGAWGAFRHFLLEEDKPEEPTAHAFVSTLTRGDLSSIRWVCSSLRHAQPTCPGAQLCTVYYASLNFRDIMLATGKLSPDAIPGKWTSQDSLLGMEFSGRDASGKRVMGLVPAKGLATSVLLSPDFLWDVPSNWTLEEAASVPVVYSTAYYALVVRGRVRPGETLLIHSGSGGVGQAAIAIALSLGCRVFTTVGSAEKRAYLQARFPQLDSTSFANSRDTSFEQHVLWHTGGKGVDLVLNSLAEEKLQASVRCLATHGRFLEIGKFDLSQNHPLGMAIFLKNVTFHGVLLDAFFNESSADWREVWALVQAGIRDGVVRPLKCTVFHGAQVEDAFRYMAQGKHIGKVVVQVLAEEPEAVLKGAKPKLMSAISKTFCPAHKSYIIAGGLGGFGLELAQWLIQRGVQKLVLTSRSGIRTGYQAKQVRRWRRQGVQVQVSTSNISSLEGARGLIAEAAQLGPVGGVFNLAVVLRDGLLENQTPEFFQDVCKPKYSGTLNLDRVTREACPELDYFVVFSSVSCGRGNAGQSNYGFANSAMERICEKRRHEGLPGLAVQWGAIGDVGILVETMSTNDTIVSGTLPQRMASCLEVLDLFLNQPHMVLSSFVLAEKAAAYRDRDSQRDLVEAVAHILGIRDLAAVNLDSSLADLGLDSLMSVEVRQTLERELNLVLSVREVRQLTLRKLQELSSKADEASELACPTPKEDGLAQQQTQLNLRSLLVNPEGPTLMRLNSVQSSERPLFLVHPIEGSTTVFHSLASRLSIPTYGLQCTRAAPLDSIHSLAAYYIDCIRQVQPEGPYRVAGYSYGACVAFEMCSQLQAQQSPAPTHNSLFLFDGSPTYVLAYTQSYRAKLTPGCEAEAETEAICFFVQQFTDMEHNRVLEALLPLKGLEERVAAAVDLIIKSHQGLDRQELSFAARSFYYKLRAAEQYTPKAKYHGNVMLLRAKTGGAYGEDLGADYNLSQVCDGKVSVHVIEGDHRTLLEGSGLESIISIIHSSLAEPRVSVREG
# Fatty acid synthase [4] = target: T2, Fatty acid synthase; test: FAS thioesterase domain inhibitors, dose response, biochemical, kinetic fluorescence intensity (AID 624326); assay type: functional;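 further: rate of fluorescence rise from hydrolysis of a fluorogenic O-methyl fluorescein ester substrate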
# [5] = target: T3, Ubiquitin-conjugating enzyme E2 N (Homo sapiens, UniProt P61088); assay type: functional;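 further: Dose-response confirmation in a TR-FRET assay detecting UBC13-driven polyubiquitin chain formation, inhibition measured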
# T3 sequence (P61088 whole entry): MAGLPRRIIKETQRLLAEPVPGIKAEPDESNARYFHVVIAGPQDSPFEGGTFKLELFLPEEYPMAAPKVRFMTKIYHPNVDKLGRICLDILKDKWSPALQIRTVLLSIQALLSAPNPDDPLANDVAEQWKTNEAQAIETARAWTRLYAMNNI
# Vero = test: cells; assay type: functional; settings: Chlorocebus sabaeus
# [6] = P. falciparum Dd2 growth inhibitors, dose response, SYBR Green, cherry-picked samples (AID 1159567); assay type: functional, cell-based
# [7] = growth suppression of PTEN-null colon cells, dose response, cell-based, HCT116 PTEN knockout (AID 1047); assay type: functional;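 further: HCT116 colon tumor cells with PTEN knocked out; cells exposed to compound for 60 hours before readout; potency for loss of cell viability measured by luminescence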
# [8] = growth suppression of beta-catenin-knockout colon cells, dose response, cell-based, HCT116, human colon tumor (AID 1045); assay type: functional;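 further: HCT116 colon tumor cells with beta catenin knocked out; cells exposed to compound for 60 hours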
# [9] = cytotoxicity toward NIH3T3 fibroblasts, dose response, counter-screen, cell-based, ATP luminescence, mouse fibroblasts (AID 2010); assay type: functional;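 further: cells exposed to compound for about 90 hours before reading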
# [10] = inhibitors of intracellular T. cruzi replication, confirmation, NIH3T3 host cells, beta-gal luminescence (AID 2044); assay type: functional, cell-based;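 further: intracellular parasites grown in NIH/3T3 mouse fibroblasts as host cells; luminescent beta-galactosidase reporter signal from transgenic T. cruzi replicating inside host cells; inhibitors lower the luminescence signal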
# Chain of Induced myeloid leukemia cell differentiation protein Mcl-1 (Q07820 whole entry): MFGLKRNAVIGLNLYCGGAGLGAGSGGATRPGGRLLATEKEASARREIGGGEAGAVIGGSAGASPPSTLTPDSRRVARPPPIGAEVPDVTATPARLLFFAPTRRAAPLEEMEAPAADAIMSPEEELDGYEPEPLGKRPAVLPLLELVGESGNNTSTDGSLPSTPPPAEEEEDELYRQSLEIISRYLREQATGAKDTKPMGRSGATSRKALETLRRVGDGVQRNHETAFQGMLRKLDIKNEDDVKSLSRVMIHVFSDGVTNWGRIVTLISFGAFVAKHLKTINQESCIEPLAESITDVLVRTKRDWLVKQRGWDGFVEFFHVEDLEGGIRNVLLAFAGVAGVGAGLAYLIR
# Chain of Cytochrome P450 3A4 (P08684 whole entry): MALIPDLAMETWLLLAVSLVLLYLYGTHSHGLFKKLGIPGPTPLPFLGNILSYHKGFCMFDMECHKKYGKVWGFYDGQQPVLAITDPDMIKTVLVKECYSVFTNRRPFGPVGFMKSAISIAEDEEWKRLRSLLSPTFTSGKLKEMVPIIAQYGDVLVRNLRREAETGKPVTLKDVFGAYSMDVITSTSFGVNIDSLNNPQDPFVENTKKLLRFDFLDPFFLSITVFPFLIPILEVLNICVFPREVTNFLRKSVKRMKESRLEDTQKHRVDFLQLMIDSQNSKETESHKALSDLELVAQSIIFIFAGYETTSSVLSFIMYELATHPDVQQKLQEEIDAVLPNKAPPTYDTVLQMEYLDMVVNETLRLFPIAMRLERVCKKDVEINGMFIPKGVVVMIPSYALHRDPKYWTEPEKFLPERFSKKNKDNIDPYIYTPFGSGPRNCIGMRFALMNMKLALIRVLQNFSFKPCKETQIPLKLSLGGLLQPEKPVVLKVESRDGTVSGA
compound,measurement,setting,value
Cc1ccccc1C(=O)Nc1nc(-c2cccnc2)cs1,IC50,[1],> 54 µM (active)
c1ccc2c(c1)ccc1ncccc12,AC50,Cytochrome P450 3A4,31.6 µM (inconclusive)
CC1=C(/C=C/C(C)=C/C=C/C(C)=C\C=O)C(C)(C)CCC1,AC50,Cytochrome P450 3A4,31.6 µM (inconclusive)
CCCN(CCC)CCNC(=O)CCC(=O)Nc1ccc2nc(N3CCOCC3)cc(C)c2c1,EC50,[2],0.473 µM (active)
CN(CCc1ccccn1)C(=O)CC1C(=O)NCCN1Cc1ccccc1C(F)(F)F (configuration not stated),EC50,[2],5.96 µM (active)
COc1ccc([C@@H]2[C@@H]3C(=O)N(C(C)(C)C)C(=O)[C@@H]3[C@]3(Cc4ccc(Cl)cc4)C(=O)N(c4ccc(Br)cc4)C(=O)N23)cc1,IC50,Fatty acid synthase [3],11.5 µM (active)
same,IC50,Fatty acid synthase [4],11.2 µM (active)
COc1ccc(C[C@H]2CN3C(=NC[C@@H]3Cc3ccc(O)cc3)N2CCNC(=O)c2ccc(C)c(Br)c2)cc1,IC50,[5],> 20 µM (inactive)
CCN(CC)CCSc1nc2cc(OC)ccc2[nH]1,EC50,[2],0.668 µM (active)
O=C(Nc1ccn(CCCNCc2cccc3ccccc23)c(=O)n1)OCc1ccccc1,CC50,Vero,> 25 µM (active)
O=C(C=Cc1ccccc1)c1cccs1,CC50,Vero,> 25 µM (active)
CC(=O)N1N=C(c2ccc(Br)cc2)CC1c1cccc([N+](=O)[O-])c1 (configuration not stated),IC50,Fatty acid synthase [3],7.1 µM (active)
same,IC50,Fatty acid synthase [4],5.14 µM (active)
CO[C@@H]1CN(C)C(=O)c2ccc(NC(=O)Nc3ccc(F)cc3)cc2OC[C@@H](C)N(C(=O)c2ccc(F)cc2)C[C@H]1C,AC50,[6],8.03 µM (active)
COc1cc(/C=N/NC(=O)c2sc(N)c(C#N)c2C)ccc1O,IC50,[5],> 20 µM (inactive)
C=CCn1c(/N=C/c2ccc(N(C)C)cc2)nc2ccccc21,EC50,[2],6.68 µM (active)
COc1ccc(C(=O)NCC(=O)N/N=C/c2c(C)[nH]c3ccccc23)cc1OC,IC50,cells,7.07 µM (active)
CCCCNC(=S)N(C)/N=C/c1ccc(OCC(=O)Nc2c(C)cc(C)cc2C)c(OC)c1,EC50,[7],66.4 µM (active)
same,EC50,[8],95.1 µM (active)
CC(=N)/C(C#N)=C(/O)COc1ncnc2ccccc12,IC50,cells,1.77 µM (active)
CCCOc1ccc(/C=N/NC(=O)CSCc2ccc([N+](=O)[O-])cc2)cc1OCC,IC50,[5],20 µM (active)
CCOC(=O)c1c(NC(=O)N/N=C/c2ccc(O)c(OC)c2)sc(C(C)=O)c1C,IC50,[1],1.17 µM (active)
O=C(Nc1ccc(F)cc1)N1CC(=O)N2[C@H](C1)[C@@H](c1ccc(C#Cc3ccc(F)cc3)cc1)[C@@H]2CO,AC50,[6],4.49 µM (active)
N=c1n(CCN2CCCCC2)c2ccccc2n1CC(O)c1ccc(Cl)c(Cl)c1 (configuration not stated),EC50,[7],4.29 µM (active)
same,EC50,[8],4.25 µM (active)
same,EC50,[9],> 60 µM (not active)
same,EC50,[10],2.08 µM (active)

# Source: ChEMBL document CHEMBL1201862, “PubChem BioAssay data set” (2004)
